The text below walks through data of patent US20100130509A1, “NOVEL ANTIBIOTICS” (Nederlandse Organisatie voor toegepast-natuurwe- …, priority 2007, published 2010).

The test system of assay [1] is S. aureus strain ATCC 6538. Briefly: MIC test (CLSI M7-A6 dilution), S. aureus ATCC 6538. The format is cell-based, Staphylococcus aureus. The settings on record: for MIC: Staphylococcus aureus.
The next assay concerns Staphylococcus aureus. Briefly: Antibiotic activity towards Staphylococcus aureus (summary statements). The format is cell-based. The settings on record: statement in words.
In a further assay the test system is S. aureus TTC 03.0236. Put plainly: MIC test (CLSI M7-A6 dilution), S. aureus TTC 03.0236. The format is cell-based. Particulars: Staphylococcus aureus, TTC03.0236; single strain; TTC is internal collection number. The protocol:
(§1) MIC test were performed according to standard methodology: M7-A6-“Methods for Dilution Antimicrobial Susceptibility Tests for Bacteria That Grow Aerobically”; Approved Standard, Sixth Edition Clinical and Laboratory Standards Institute 2005 (CLSI/formerly NCCLS).

The test system of a further assay is S. aureus TTC 03.0239. Put plainly: MIC test (CLSI M7-A6 dilution), S. aureus TTC 03.0239. The format is cell-based. Particulars: Staphylococcus aureus, TTC03.0239; single strain; TTC is internal collection number. The protocol: as §1
Another assay deals with S. epidermis. Put plainly: MIC test (CLSI M7-A6 dilution), S. epidermis. The format is cell-based. The settings on record: single strain. The protocol: as §1
The mark [2] stands for this setting: ATCC6538, Table II, Example 3, read-out: MIC S. aureus ATCC 6538.
The mark [3] stands for this setting: ATCC6538, single strain, Table I, read-out: MIC S. aureus ATTC 6538.

SMILES strings stand for the structures. Converted amounts (≈) assume the structure as drawn. Where two headings read alike, the source gives them in different places.

With `Cc1ccccc1-n1nnnc1C(Cl)(Cl)C(=O)Nc1ccncc1` [NewCo 0061, 2,2-dichloro-N-pyridin-4-yl-2-(1-o-tolyl-1H-tetrazol-5-yl)-acetamide], the MIC in assay [1] (setting [2]) is 0.78 µg/mL (≈ 2.15 µM). For the same compound, in the assay on Staphylococcus aureus, the “antibiotic activity towards Staphylococcus aureus” value is “most notable” and the “efficacy as antimicrobial agents” value is “exceptionally good”.
As to `Cc1ccccc1-n1nnnc1C(Cl)(Cl)C(=O)NC(C)C` [NewCo 0059, 2,2-dichloro-N-isopropyl-2-(1-o-tolyl-1H-tetrazol-5-yl)-acetamide], in assay [1] (setting [2]), the MIC is 25 µg/mL (≈ 76.2 µM).
For the compound `Cc1ccccc1-n1nnnc1C(Cl)(Cl)C(N)=O` [NewCo 0063, 2,2-dichloro-2-(1-o-tolyl-1H-tetrazol-5-yl)-acetamide], in assay [1] (setting [2]), the MIC turned out to be 1.56 µg/mL (≈ 5.45 µM). In addition, in the assay on Staphylococcus aureus, the “antibiotic activity towards Staphylococcus aureus” value was “most notable” and the “efficacy as antimicrobial agents” value is reported as “exceptionally good”.
For the compound `Cc1ccccc1-n1nnnc1C(Cl)(Cl)C(=O)N(C)C` [NewCo 0064, 2-dichloro-N,N-dimethyl-2-(1-o-tolyl-1H-tetrazol-5-yl)-acetamide], in assay [1] (Table II, Example 3), the “MIC S. aureus ATCC 6538” value turned out to be 100 µg/mL (≈ 318 µM).
On the same count and under the same terms, the same measure for `Cc1ccccc1-n1nnnc1C(Cl)(Cl)C(=O)NC1CCNCC1` [NewCo 0062, 2,2-dichloro-N-piperidin-4-yl-2-(1-O— tolyl-1H-tetrazol-5-yl)-acetamide]: 50 µg/mL (≈ 135 µM).
Consider `CN[C@H](CC(C)C)C(=O)N[C@H]1C(=O)N[C@@H](CC(N)=O)C(=O)N[C@H]2C(=O)N[C@H]3C(=O)N[C@H](C(=O)N[C@H](C(=O)O)c4cc(O)cc(O)c4-c4cc3ccc4O)[C@H](O)c3ccc(c(Cl)c3)Oc3cc2cc(c3O[C@@H]2O[C@H](CO)[C@@H](O)[C@H](O)[C@H]2O[C@H]2C[C@](C)(N)[C@H](O)[C@H](C)O2)Oc2ccc(cc2Cl)[C@H]1O` [Vancomycin, reference compound], for which the MIC in assay [1] (ATCC6538, read-out: MIC S. aureus ATCC 6538) came out at 0.78 µg/mL (≈ 0.538 µM).
For the compound `Cc1ccccc1-n1nnnc1C(Cl)(Cl)C(=O)N1CCNCC1` [NewCo 0060, 2,2-dichloro-1-piprazin-1-yl-2-(1-o-tolyl-1H-tetrazol-5-yl)-ethanone], in assay [1] (Table II, Example 3), the “MIC S. aureus ATCC 6538” value amounted to 12.5 µg/mL (≈ 35.2 µM).
`Cc1ccccc1-n1nnnc1C(Cl)(Cl)C(=O)Nc1ccccc1` [NewCo 0058, 2,2-dichloro-N-phenyl-2-(1-o-tolyl-1H-tetrazol-5-yl)-acetamide]: the MIC in assay [1] (setting [2]) is 0.39 µg/mL (≈ 1.08 µM). In the assay on Staphylococcus aureus, the “antibiotic activity towards Staphylococcus aureus” value is recorded as “most notable” and the “efficacy as antimicrobial agents” value is given as “exceptionally good”.
For `O=C(Nc1ccccc1)C(Cl)(Cl)c1nnnn1-c1ccccc1` [NewCo0052, N1-phenyl-2,2-dichloro-2-(1-phenyl-1H-1,2,3,4-tetraazol-5-yl)acetamide], the MIC is 1.56 µg/mL (≈ 4.48 µM) in assay [1] (setting [3]), 1.56 µg/mL (≈ 4.48 µM) in the assay on S. aureus TTC 03.0236, 1.56 µg/mL (≈ 4.48 µM) in the assay with S. aureus TTC 03.0239 and 0.78 µg/mL (≈ 2.24 µM) against S. epidermis. For the same compound, in the assay with Staphylococcus aureus, the “antibiotic activity towards Staphylococcus aureus” value is recorded as “most notable”. In addition, the “efficacy as antimicrobial agents” value in the assay with Staphylococcus aureus was “exceptionally good”.
For the compound `COc1ccccc1NC(=O)C(Cl)(Cl)c1nnnn1-c1ccccc1OC` [NewCo0053, N1-(2-methoxyphenyl)-2,2-dichloro-2-[1-(2-methoxyphenyl)-1H-1,2,3,4-tetraazol-5-yl]acetamide], the MIC is 0.78 µg/mL (≈ 1.91 µM) in assay [1] (setting [3]), 0.78 µg/mL (≈ 1.91 µM) against S. aureus TTC 03.0236, 1.56 µg/mL (≈ 3.82 µM) against S. aureus TTC 03.0239 and 0.78 µg/mL (≈ 1.91 µM) against S. epidermis. Moreover, the “antibiotic activity towards Staphylococcus aureus” value in the assay on Staphylococcus aureus was “most notable”. Further, the “efficacy as antimicrobial agents” value with Staphylococcus aureus was “exceptionally good”.

What is called MIC is the smallest concentration in the dilution series that meets the test's criterion for growth inhibition.
